From US5441983A, “Treatment of infection by enveloped virus with calix(N)arene compounds” (Genelabs Incorporated, priority 1992, dated 1995)
Values after ≈ are worked out from the molar mass of the structure shown.

Tests used:
HSV-2 [1] = assay: Plaque reduction assay, HSV-2, Vero cells; format: cell-based, HSV-2 (333); conditions: Human alphaherpesvirus 2, Vero
[2] = tested on: HSV-1 binding to Vero cells; assay: Inhibition of binding of radiolabeled HSV-1 to Vero cells; format: cell-based; conditions: 10 μg/ml KY-1, FIG. 30
Description: In one study, the ability of a macrocyclic compound to block HSV binding to infectable cells was examined as described in Example 14. Briefly, Vero cells were exposed to radiolabeled HSV-1 or HSV-2 in the absence of KY compound or in the presence of 10 μg/ml KY-1, and binding of the virus at times up to 4 hours after exposure to the virus was measured. […] In the absence of drug, the amount of bound virus increased steadily over two hours, and slightly from 2-4 hours. By contrast, virus binding to cells peaked at about 1/2 hour in the presence of drug, presumably reflecting the time during which the binding events effective to block virus binding to the cells are equilibrating.
At time intervals of 5, 30, 60, 120, and 240 minutes, cells were removed from the suspension, washed two times with PBS, and assayed for bound virus (cpm ^3 H). The results are given in FIG. 30, where the control virus binding is indicated by solid circles, and the drug-inhibited binding, by open rectangles.

[3] = tested on: HSV glycoproteins gD, gB, and gC; assay: Identification of KY-1 binding proteins; design: species or system HSV-1; conditions: FIG. 32B
Excerpt: In a fourth study, the binding of radiolabeled KY-1 compound to HSV-1 and HSV-2 viral proteins was examined. After compound binding, virus proteins were fractionated by sodium dodecyl sulfate polyacrylamide gel electrophoresis (SDS-PAGE), and the gel patterns developed by autoradiography. In FIG. 32A, lanes A and B in the figure are autoradiographs of HSV-1 proteins in the presence ([…]) and absence (lane B) of mercaptoethanol, and lanes C and D, analogous patterns for HSV-2 proteins. The lane at the right contains the molecular weight markers, as indicated. The major bands of drug binding in HSV-1 have molecular weights, as determined from SDS-PAGE, of 45, 66, and about 130 kilodaltons.
HSV-1 and HSV-2 virus suspensions were solubilized with SDS and fractionated on SDS-PAGE as above. Each sample was run in triplicate, corresponding to groups D, B, and C in FIG. 32B. The two gels in each group were analyzed by Western blotting as follows: The gels in groups D, B, and C were first reacted with mouse monoclonal antibody specific against HSV glycoprotein gD, gB, and dC, respectively. The antibodies were obtained from Dr. S. Chatterjee from the University of Alabama. The gels were then incubated with alkaline phosphatase-labeled goat antimouse antibody, to label the glycoprotein in each group. […]

rhinovirus = assay: Inhibition of rhinovirus cytopathic effect in Vero cells; format: cell-based; conditions: 1-100 μg, 24 h
Description: (§1) The ability of KY compounds to inhibit cell infection by a rhinovirus and adenoviruses 5 and 7 which are non-enveloped viruses, was similarly studied. Vero cells (10^5) were infected with a rhinovirus in the presence of KY-1, at concentrations ranging between 1-100 μg. Twenty-four hours after virus infection, the cells were examined for cytopathic effect, evidencing viral infection.

adenovirus = assay: Inhibition of adenovirus cytopathic effect in Vero cells; format: cell-based, adenoviruses 5 and 7; conditions: 1-100 μg, 24 h
Description: as §1
Vero cells were infected with adenovirus in the presence of KY-1, also at concentrations ranging between 1-100 μg, and twenty-four hours after virus infection, the cells were examined for cytopathic effect.

HSV-1 KOS = assay: Inhibition of viral yield, wild type HSV-1 KOS; conditions: Human alphaherpesvirus 1, HeLa, read-out: ID90
Description: (§2) These compounds tested were the nucleoside analogs acyclovir (ACV), ganciclovir (DHPG), phosphonoformate (PFA), and phosphomethoxyethyladenine (PMEA). Inhibition of viral yield was determined, as above, by infecting Hela cells in the presence of wild type or drug-resistant strains of HSV-1 or HSV-2, and serial dilutions of a selected anti-viral compound, and infecting Vero cells with serial dilutions of the Hela cell lysate, as above.
(§3) The KOS (HSV-1) and 333 (HSV-2) are wild type viruses; the KOS(PMEA)' and KOS(PFA)' are drug-resistant HSV-1 strains having a DNA polymerase mutation. The 333(DHPG) strain is a drug-resistantHSV-2 strain having a thymidine kinase mutation.
(§4) The following strains of HSV-1 and HSV-2 virus were used: KOS, a wild type HSV-1 virus; KOS (PMEA) and KOS (PFA), both drug-resistant HSV-1 viruses having a DNA polymerase mutation; 333, a wild type HSV-2 HSV-2 virus, and 333 (DHPG), a drug-resistant HSV-2 virus having a thymidine kinase mutation.
(§5) After growth at 37° C. for 24 hours in 2 ml of RPMI-1640 containing 2% FCS and penicillin and streptomycin (P/S), the cells were frozen at -70° C. until the time for titration. The cells were freeze/thawed 3 times to release virus from the cells, serially diluted 10 fold, and the serial dilutions were added to Vero cells in culture. After 2 hours incubation at 37° C. the virus was removed and 0.5 ml methycellulose (4K cps) in RPMI-1640 and 2% FCS+P/S was added. Two days later, the medium was removed. The cells were stained in 0.8% crystal violet in 50% ethanol. The plaques formed were counted and the titer was calculated from the fold of dilutions. From the drug dose response, the concentration of each drug required to effect a 90% inhibition of virus yield, the IC90 concentration was determined.

HSV-2 333 = assay: Inhibition of viral yield, wild type HSV-2 333; conditions: Human alphaherpesvirus 2, HeLa, read-out: ID90
Description: as §2, §3, §4, §5

HIV-HXB = assay: Inhibition of syncytia formation, HIV-HXB (HTLV-IIIB); conditions: Human immunodeficiency virus 1, 18 h, read-out: HIV-HXB ED100, complete inhibition of syncytia formation
HSV-1 KOS (PFA)' = assay: Inhibition of viral yield, drug-resistant HSV-1 KOS(PFA)'; conditions: Human alphaherpesvirus 1, HeLa, read-out: ID90
Description: as §2, §3, §4, §5

HSV-1 KOS(PMEA)' = assay: Inhibition of viral yield, drug-resistant HSV-1 KOS(PMEA)'; conditions: Human alphaherpesvirus 1, HeLa, read-out: ID90
Description: as §2, §3, §4, §5

HSV-2 333 (DHPG)' = assay: Inhibition of viral yield, drug-resistant HSV-2 333(DHPG)'; conditions: Human alphaherpesvirus 2, HeLa, read-out: ID90
Description: as §2, §3, §4, §5

HSV-2 [4] = assay: Topical treatment of genital HSV-2 infection, guinea pigs, first study
Description: Briefly, female guinea pigs were infected intravaginally with HSV-2, then treated topically three times daily beginning 6 hours or 48 hours after inoculation with HSV-2, as described in Example 13. […] Swabs of vaginal secretion were obtained and assayed for viral activity by a standard CPE assay. The severity of genital lesions was scored on a 0-5+ scale through the period of primary infection (21 days).
(§6) The MS strain of HSV-2 was utilized for the experimental animal infection. Female Hartley strain guinea pigs (Charles River Breeding Laboratories, Kingston, NY) weighing 250-300 g were inoculated intravaginally with 2.0×10^5 plaque-forming units of HSV-2 one hour after being swabbed for removal of vaginal secretions.
In the first study, groups of 10 guinea pigs were treated topically (0.1 ml intravaginally +0.1 ml on external genital skin) three times daily (approximately every eight hours) for seven days beginning 6 h or 48 h after inoculation with HSV-2.
To determine the effect of treatment on vaginal viral replication, swabs of vaginal secretions were obtained on days 1, 3, 5, 7 and 10 after HSV inoculation, placed in a tube containing 2.0 ml of media, vortexed and frozen at -70° C. until titrated for HSV-2. When all samples were collected, they were thawed, diluted serially and HSV-2 titers determined using rabbit kidney cells in a microtiter CPE assay.
(§7) To determine the effect of therapy on the development and spread of external genital lesions, lesion severity was scored on a 0-5+ scale through the primary infection period (19-21 days). Lesion score-day areas and virus titer-day areas under the curve, and peak lesion scores and peak virus titers between untreated and placebo-treated or placebo-treated and drug-treated animals were compared using the Mann-Whitney U range sum test. A p-value of 0.05 or less was considered significant.

HSV-2 [5] = assay: Topical treatment of genital HSV-2 infection, guinea pigs, second study; conditions: for % Animals with Lesions / Lesion Score (AUC) / Mean Peak lesion score: 24 h
Description: In another study using the guinea pig genital model described above, animals were infected with HSV-2, then treated with KY-1 or Y-1 topically at concentrations of 2% or 5% drug. […] Animals were treated and scored daily for severity of infection for 19 days.
as §6
Formulations of KY-1 or Y-1 were prepared by dissolving the compound in a 1.5% methyl cellulose solution such that final concentration of compound was 2% or 5% (wt/wt). Control animals were given either no treatment (N=10 animals) or treatment with placebo (1.5% methylcellulose solution).
as §7
Animals were scored daily for 19 days following inoculation for presence of lesions and severity of lesions (on a 0-5+ point scale). Lesion scores were tabulated as area under the curve of daily lesion score vs. time (days) and peak lesion score observed. A known antiviral agent, acyclovir (ACV) was administered in a 5% formulation to 8 animals as a positive control in the study.

HSV-1 = assay: Inactivation of purified HSV-1 by compound, plaque number after serial dilution; conditions: for Plaque number, dilution 10^2 / Plaque number, dilution 10^3 / Plaque number, dilution 10^4 / Plaque number, dilution 10^5 / Plaque number, dilution 1 / Plaque number, dilution 10^1: 10 μg/ml, duplicate
Description: In a third study, purified HSV-1 virus suspensions were incubated with KY-1 or the sodium salt thereof, or a control solution for 1 hour, then serially diluted to drug concentrations between 10^1 to 10^-4 μg/ml as described in Example 16. The "X" symbol in the table indicates plaques too numerous to count.
Purified HSV-1 was suspended in RPMI-1640 medium (Gibco Laboratories) containing 2% FCS, penicillin and streptomycin. […] The suspensions were incubated for 1 hour at 37° C., then diluted serially at 10 fold dilutions to final drug concentrations of 10, 10^0, 10^-1, 10^-2, 10^-3 and 10^-4 μg/ml drug concentrations The serially diluted particles were then added to Vero cells for two hours, as in Example 6, and the cells examined for plaques 48 hours later.

SMILES: O=S(=O)(O)c1cc2cc(S(=O)(=O)O)c3c(O)c2c(O)c1Cc1c(S(=O)(=O)O)cc2cc(S(=O)(=O)O)c(c(O)c2c1O)Cc1c(S(=O)(=O)O)cc2cc(S(=O)(=O)O)c(c(O)c2c1O)Cc1c(S(=O)(=O)O)cc2cc(S(=O)(=O)O)c(c(O)c2c1O)C3 [KY-1]
- IC50 (HSV-2 [1]): 1.7 µg/mL (≈ 1.28 µM)
- time at which virus binding to cells peaked [2]: about 1/2
- proteins bound (major bands) [3]: correspond in molecular weight, to HSV glycoproteins gD, gB, and gC
- reduction in cell clumping, rhinovirus (rhinovirus): No reduction in cell clumping
- reduction in cell clumping, adenovirus (adenovirus): No reduction in cell clumping
- IC90 (HSV-1 KOS): 1.9 µg/mL (≈ 1.43 µM)
- IC90 (HSV-2 333): 3.2 µg/mL (≈ 2.41 µM)
- EC100 (HIV-HXB): 8 µg/mL
- IC90 (HSV-1 KOS (PFA)'): 4.3 µg/mL (≈ 3.23 µM)
- IC90 (HSV-1 KOS(PMEA)'): 2.6 µg/mL (≈ 1.96 µM)
- IC90 (HSV-2 333 (DHPG)'): 3.7 µg/mL (≈ 2.78 µM)
- Lesion score Area Under Curve (HSV-2 [4]; 1%, +6 h): 30.8
- Mean Peak lesion score (HSV-2 [4]; 1%, +6 h): 2.9
- AUC, in words (HSV-2 [4]; 1%, +6h, P<0.01): significantly reduced the AUC
- Lesion score Area Under Curve (HSV-2 [4]; 1%, +48 h): 46.6
- Mean Peak lesion score (HSV-2 [4]; 1%, +48 h): 4.3
- lesion development (AUC and mean peak lesion scores) versus placebo (HSV-2 [4]; 5%, 6h after infection, P <0.001): significantly reduced
- Lesion score Area Under Curve (HSV-2 [4]; 5%, +6 h): 3.8
- Mean Peak lesion score (HSV-2 [4]; 5%, +6 h): 0.8
- Lesion score Area Under Curve (HSV-2 [4]; 5%, +48 h): 45.7
- Mean Peak lesion score (HSV-2 [4]; 5%, +48 h): 3.7
- % Animals with Lesions (HSV-2 [5]; 2%): 70%
- Lesion Score (AUC) (HSV-2 [5]; 2%): 16.2
- Mean Peak lesion score (HSV-2 [5]; 2%): 2.2
- % Animals with Lesions (HSV-2 [5]; 6%): 50%
- Lesion Score (AUC) (HSV-2 [5]; 6%): 17.5
- Mean Peak lesion score (HSV-2 [5]; 6%): 1.7
- lesions, in words (HSV-2 [5]; 24 hours post-infection, 6% KY-1 or Y-1, 2% KY-1): reduced numbers of lesion bearing animals and reduced severity of lesions
- Plaque number, dilution 10^2 (HSV-1; 0.3 pfu/cell): 0,0
- Plaque number, dilution 10^3 (HSV-1; 0.3 pfu/cell): 0,0
- Plaque number, dilution 10^4 (HSV-1; 0.3 pfu/cell): 0,0
- Plaque number, dilution 10^5 (HSV-1; 0.3 pfu/cell): 0,0
- Plaque number, dilution 1 (HSV-1; 0.3 pfu/cell, listed as KY 1): 3,2
- Plaque number, dilution 10^1 (HSV-1; 0.3 pfu/cell, listed as KY 1): 0,0
- Plaque number, dilution 10^4 (HSV-1; 3 pfu/cell): 0,0
- Plaque number, dilution 10^5 (HSV-1; 3 pfu/cell): 0,0
- Plaque number, dilution 1 (HSV-1; 3 pfu/cell, listed as KY 1): 2,2
- Plaque number, dilution 10^1 (HSV-1; 3 pfu/cell, listed as KY 1): 2,1
- Plaque number, dilution 10^2 (HSV-1; 3 pfu/cell, listed as KY 1): 17,16
- Plaque number, dilution 10^3 (HSV-1; 3 pfu/cell, listed as KY 1): 5,2
- final drug concentration with complete virus inhibition (HSV-1; after dilution of treated virus): 10^-2 to 10^-4 μg/ml
